# Results published in patent publication US9834554B2, “BTK inhibitors” (MERCK SHARP & DOHME CORP., priority 2013, dated 2017).
# Biological target: BTK enzyme (recombinant full-length BTK, hBTK) (Homo sapiens (Human), UniProt Q06187)
# Experiment: Btk enzyme activity assay, LANCE TR-FRET
# Settings: read-out: BTK binding IC50; 50 pM hBTK, 2 μM biotin-A5-peptide, 25 μM ATP; 60 minute compound & enzyme incubation
# Protocol: Also BTK enzymatic activity was determined with the LANCE (Lanthanide Chelate Excite) TR-FRET (Time-resolved fluorescence resonance energy transfer) assay. […] Phosphorylation reactions were allowed to proceed for 120 minutes. […] After 60 minutes incubation with detection reagents, reaction plates were read on a PerkinElmer EnVision plate reader using standard TR-FRET protocol. Briefly, excitation of donor molecules (Eu-chelate:anti-phospho-antibody) with a laser light source at 337 nm produces energy that can be transferred to Dylight-650 acceptor molecules if this donor:acceptor pair is within close proximity. Fluorescence intensity at both 665 nm (acceptor) and 615 nm (donor) are measured and a TR-FRET ratio calculated for each well (acceptor intensity/donor intensity).
# Btk Enzyme Activity Assay Method
# BTK enzymatic activity was determined with the LANCE (Lanthanide Chelate Excite) TR-FRET (Time-resolved fluorescence resonance energy transfer) assay. […] Phosphorylation reactions were allowed to proceed for 120 minutes. […] After 60 minutes incubation with detection reagents, reaction plates were read on a PerkinElmer EnVision plate reader using standard TR-FRET protocol. Briefly, excitation of donor molecules (Eu-chelate:anti-phospho-antibody) with a laser light source at 337 nm produces energy that can be transferred to Dylight-650 acceptor molecules if this donor:acceptor pair is within close proximity. Fluorescence intensity at both 665 nm (acceptor) and 615 nm (donor) are measured and a TR-FRET ratio calculated for each well (acceptor intensity/donor intensity).
# Chain of BTK enzyme (recombinant full-length BTK, hBTK) (Q06187 whole entry): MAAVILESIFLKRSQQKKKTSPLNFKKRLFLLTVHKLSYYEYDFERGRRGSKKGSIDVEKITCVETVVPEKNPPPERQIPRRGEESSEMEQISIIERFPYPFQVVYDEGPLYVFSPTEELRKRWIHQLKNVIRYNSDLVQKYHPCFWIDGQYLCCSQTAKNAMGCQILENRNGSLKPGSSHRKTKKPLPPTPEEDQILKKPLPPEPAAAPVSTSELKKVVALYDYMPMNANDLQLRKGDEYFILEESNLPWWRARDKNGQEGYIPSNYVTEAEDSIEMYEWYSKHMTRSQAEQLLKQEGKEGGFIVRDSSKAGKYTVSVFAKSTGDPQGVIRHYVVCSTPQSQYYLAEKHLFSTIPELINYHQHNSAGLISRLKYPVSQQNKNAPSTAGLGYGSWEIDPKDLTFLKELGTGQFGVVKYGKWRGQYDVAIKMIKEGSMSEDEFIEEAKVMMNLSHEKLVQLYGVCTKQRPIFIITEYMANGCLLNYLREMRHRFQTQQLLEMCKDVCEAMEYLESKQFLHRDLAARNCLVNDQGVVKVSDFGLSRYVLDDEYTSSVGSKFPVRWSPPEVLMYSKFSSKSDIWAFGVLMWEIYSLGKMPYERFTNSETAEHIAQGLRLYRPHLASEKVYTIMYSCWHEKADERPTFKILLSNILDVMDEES
row,IC50 [nM],SMILES
1,2.5,"Nc1nccc2c([C@@H]3CCCN(C(=O)C4CC(F)(F)C4)C3)nn(-c3ccc(C(=O)Nc4cc(C(F)(F)F)ccn4)cc3)c12 [Example 17, 4-(7-amino-3-{(3R)-1-[(3,3-difluorocyclobutyl)carbonyl]piperidin-3-yl}-1H-pyrazolo[3,4-c]pyridin-1-yl)-N-[4-(trifluoromethyl)pyridin-2-yl]benzamide]"
2,25.2,"COCC(=O)N1CCO[C@@H](c2nn(-c3ccc(C(=O)Nc4cc(OC)ccn4)cc3)c3c(N)nccc23)C1 [Example 7, 4-{7-amino-3-[(2R)-4-(methoxyacetyl)morpholin-2-yl]-1H-pyrazolo[3,4-c]pyridin-1-yl}-N-(4-methoxypyridin-2-yl)benzamide]"
3,0.57,"CCC(=O)N1CCC[C@@H](c2nn(-c3ccc(C(=O)Nc4cc(C(F)(F)F)ccn4)cc3)c3c(N)nccc23)C1 [Example 11, 4-{7-amino-3-[(3R)-1-propanoylpiperidin-3-yl]-1H-pyrazolo[3,4-c]pyridin-1-yl}-N-[4-(trifluoromethyl)pyridin-2-yl]benzamide]"
